Measurements: the supplement of paper PMC7600603

Key:
DLD1 NRF2-GOF [1] = conditions: 72 h; CellTiter-Glo viability
Summary of the method: (§1)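 EC50 and drug sensitivity score, the latter a normalised area under the curve, were calculated from logistic dose-response fits. The fits had four parameters and used CellTiter-Glo viability data read on a Pherastar FS reader 72 h after treatment, normalised to vehicle wells and 100-μM positive-control wells. Treated cells were isogenic DLD1 colorectal cancer cells, NRF2 wild-type or CRISPR gain-of-function, exposed in 384-well plates to library compounds at 5 concentrations spanning a 10,000-fold range.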

DLD1 NRF2-GOF [2] = assay: TC50 cytotoxicity; higher = less toxic; conditions: 72 h; CellTox Green cytotoxicity
Summary of the method: (§2)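 After growth in DMEM with 10% FBS, NRF2 wild-type and CRISPR-edited isogenic DLD1 cells were seeded in 384-well plates and given library compounds at 5 concentrations across a 10,000-fold range. Fluorescence from CellTox Green was taken on a Pherastar FS reader after 72 h and normalised against vehicle wells and 100-μM positive-control wells. From logistic dose-response fits of cytotoxicity came the TC50 and the drug sensitivity score, a normalised area under the curve.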

DLD1 NRF2-WT [3] = assay: TC50 cytotoxicity; higher = less toxic; conditions: 72 h; CellTox Green cytotoxicity
Summary of the method: as §2

DLD1 NRF2-GOF [4] = assay: drug sensitivity score (DSS) cytotoxicity (DSS score); higher = more toxic; extreme values may be limits of the assay; conditions: 72 h; CellTox Green cytotoxicity
Summary of the method: as §2

DLD1 NRF2-WT [5] = assay: as above; conditions: 72 h; CellTox Green cytotoxicity
Summary of the method: as §2

DLD1 NRF2-GOF [6] = assay: drug sensitivity score (DSS) viability (DSS score); higher = more sensitive; extreme values may be limits of the assay; conditions: 72 h; CellTiter-Glo viability
Summary of the method: as §1

DLD1 NRF2-WT [7] = assay: as above; conditions: 72 h; CellTiter-Glo viability
Summary of the method: as §1

DLD1 NRF2-WT [8] = conditions: 72 h; CellTiter-Glo viability
Summary of the method: as §1

| SMILES | EC50 viability (DLD1 NRF2-GOF [1]) | EC50 viability (DLD1 NRF2-WT [8]) | TC50 cytotoxicity (DLD1 NRF2-GOF [2]) | TC50 cytotoxicity (DLD1 NRF2-WT [3]) | drug sensitivity score (DLD1 NRF2-GOF [4]) | drug sensitivity score (DLD1 NRF2-WT [5]) | drug sensitivity score (DLD1 NRF2-GOF [6]) | drug sensitivity score (DLD1 NRF2-WT [7]) |
| --- | --- | --- | --- | --- | --- | --- | --- | --- |
| O=C(c1ccc(OCCN2CCCCC2)cc1)c1c(-c2ccc(O)cc2)sc2cc(O)ccc12 [Raloxifene] | 2100 nM | – | – | – | – | – | 3.2 | – |
| CC1(C)C(C(=O)Nc2ccc(S(=O)(=O)c3ccc(NC(=O)C4C(C)(C)C4(C)C)cc3)cc2)C1(C)C [BRD7116] | 48.2 nM | – | – | – | – | – | 7.6 | 5.5 |
| Cc1nc(NC(=O)N2CCC[C@H]2C(N)=O)sc1-c1ccnc(C(C)(C)C(F)(F)F)c1 [Alpelisib] | > 2500 nM | – | > 2500 nM | > 2500 nM | 0 | 0 | 0.3 | 2.4 |
| CC(C)Cn1cnc2c(N)nc3ccccc3c21 [Imiquimod] | 44.3 nM | – | > 2500 nM | > 2500 nM | 0 | 0 | 3.9 | – |
| CC(=O)Nc1ccc(C(=O)Nc2ccccc2N)cc1 [Tacedinaline] | 58.2 nM | – | > 1000 nM | > 1000 nM | 0 | 0 | 4 | 1.9 |
| Cn1ncnc1[C@H]1c2n[nH]c(=O)c3cc(F)cc(c23)N[C@@H]1c1ccc(F)cc1 [Talazoparib] | > 1000 nM | – | > 1000 nM | > 1000 nM | 0 | 0 | 2.4 | 5.6 |
| CCC(C)(C)C(=O)O[C@H]1C[C@@H](C)C=C2C=C[C@H](C)[C@H](CC[C@@H]3C[C@@H](O)CC(=O)O3)[C@H]21 [Simvastatin] | 571 nM | – | – | – | – | – | 3.8 | 0 |
| COc1cccc2c1C(=O)c1c(O)c3c(c(O)c1C2=O)C[C@@](O)(C(=O)CO)C[C@@H]3O[C@H]1C[C@H](N)[C@@H](O)[C@H](C)O1 [Epirubicin] | 153 nM | – | > 1000 nM | > 1000 nM | 0 | 0 | 8.6 | – |
| NCC(=O)Nc1ccc(-n2nc(C(F)(F)F)cc2-c2ccc3c(ccc4ccccc43)c2)cc1 | > 25000 nM | – | > 25000 nM | > 25000 nM | 0 | 0 | 0 | 0.8 |
| O=S(=O)(c1cccc2c(O)nccc12)N1CCCNCC1 [Hydroxyfasudil] | 2830 nM | – | > 19000 nM | > 19000 nM | 0 | 0 | 3.9 | 2.4 |
| COc1cc2ncnc(Oc3cccc(NC(=O)Nc4cc(C(C)(C)C(F)(F)F)on4)c3)c2cc1OC | – | > 10000 nM | > 10000 nM | > 10000 nM | 0 | 0 | 0.6 | 1.4 |
| CC(C)Oc1ccc(C(=O)N[C@H](CNC(=O)CN(C)C)Cc2ccc(-c3cn4cccc([C@H](C)O)c4n3)cc2)cc1Cl | 182 nM | – | > 10000 nM | > 10000 nM | 0 | 0 | 10.7 | – |
| Cc1c(N)nc([C@H](CC(N)=O)NC[C@H](N)C(N)=O)nc1C(=O)N[C@H](C(=O)N[C@H](C)[C@@H](O)[C@H](C)C(=O)N[C@H](C(=O)NCCc1nc(-c2nc(C(=O)NCCC[S+](C)C)cs2)cs1)[C@@H](C)O)[C@@H](O[C@@H]1O[C@@H](CO)[C@@H](O)[C@H](O)[C@@H]1O[C@H]1O[C@H](CO)[C@@H](O)[C@H](OC(N)=O)[C@@H]1O)c1c[nH]cn1 [Bleomycin] | – | > 10000 nM | > 10000 nM | > 10000 nM | 0 | 0 | 2.6 | 0.4 |
| CO[C@H]1C[C@@H]2CC[C@@H](C)[C@@](O)(O2)C(=O)C(=O)N2CCCC[C@H]2C(=O)O[C@H]([C@H](C)C[C@@H]2CC[C@@H](OP(C)(C)=O)[C@H](OC)C2)CC(=O)[C@H](C)/C=C(\C)[C@@H](O)[C@@H](OC)C(=O)[C@H](C)C[C@H](C)/C=C/C=C/C=C/1C [Ridaforolimus] | > 100 nM | – | – | – | – | – | 0.8 | 3.5 |
| CCc1c(C(=O)C(N)=O)c2c(OCC(=O)O)cccc2n1Cc1ccccc1 [Varespladib] | – | 1220 nM | > 10000 nM | > 10000 nM | 0 | 0 | 0.8 | 3.9 |
| Cc1cc(F)c(C(=O)Nc2cccc(-c3nncn3C(C)C)n2)cc1-n1cnc(C2CC2)c1 [Selonsertib] | – | 13.3 nM | > 1000 nM | > 1000 nM | 0 | 0 | 3.7 | 4.9 |
| CC(C)C(=O)Nc1ccc([N+](=O)[O-])c(C(F)(F)F)c1 [Flutamide] | 796 nM | – | > 10000 nM | > 10000 nM | 0 | 0 | 4.6 | 0.9 |
| CN(C)CC#Cc1ccc(OCCCc2sc(N3CCc4cccc(C(=O)Nc5nc6ccccc6s5)c4C3)nc2C(=O)O)c(F)c1 | > 10000 nM | – | 994 nM | – | 3.3 | – | 0 | – |

Continued, in another order:

| EC50 viability (DLD1 NRF2-GOF [1]) | EC50 viability (DLD1 NRF2-WT [8]) | SMILES | TC50 cytotoxicity (DLD1 NRF2-GOF [2]) | TC50 cytotoxicity (DLD1 NRF2-WT [3]) | drug sensitivity score (DLD1 NRF2-GOF [4]) | drug sensitivity score (DLD1 NRF2-WT [5]) | drug sensitivity score (DLD1 NRF2-GOF [6]) | drug sensitivity score (DLD1 NRF2-WT [7]) |
| --- | --- | --- | --- | --- | --- | --- | --- | --- |
| > 1000 nM | – | C[C@H](Nc1ncnc2[nH]cnc12)c1cc2ccc(F)cc2nc1-c1ccccn1 [AMG319] | > 1000 nM | > 1000 nM | 0 | 0 | 1.6 | – |
| 1070 nM | – | Nc1cc(F)ccc1NC(=O)/C=C/c1cnn(C/C=C/c2ccccc2)c1 [RGFP966] | > 10000 nM | > 10000 nM | 0 | 0 | 3.7 | 3.9 |
| – | > 10000 nM | Cc1nc2cccc(N)c2c(=O)n1C1CCC(=O)NC1=O (configuration not stated) [CC122] | > 10000 nM | > 10000 nM | 0 | 0 | 2.7 | 3.2 |
| – | > 10000 nM | CS(=O)(=O)c1ccc(-c2cnc(N)c(C(=O)Nc3ccccc3)n2)cc1 [VE-821] | > 10000 nM | > 10000 nM | 0 | 0 | 0.9 | 0.2 |
| – | > 5000 nM | Nc1cc(COc2c(Cl)cc(C[C@H](N)C(=O)O)cc2Cl)c2oc(-c3ccccc3)nc2c1 [JPH203] | > 5000 nM | > 5000 nM | 0 | 0 | 5.3 | 4.2 |
